Article PMC7327383, “The affinity and selectivity of α‐adrenoceptor antagonists, antidepressants, and antipsychotics for the human α1A, α1B, and α1D‐adrenoceptors” (Pharmacology Research & Perspectives, 2020)
Like-named read-outs stand apart in the source and are kept apart here.

What was measured:
human α1B-adrenoceptor = biological target: T1, human α1B-adrenoceptor (Homo sapiens, UniProt P35368); experiment: [3H]prazosin whole-cell competition binding, CHO-α1B cells; conditions: for IC50: read-out: Log IC50 α1B (converted)
T1 construct: CHO cells stably expressing either the full‐length human α1A, α1B, or α1D‐adrenoceptor
T1 sequence (P35368 1-520): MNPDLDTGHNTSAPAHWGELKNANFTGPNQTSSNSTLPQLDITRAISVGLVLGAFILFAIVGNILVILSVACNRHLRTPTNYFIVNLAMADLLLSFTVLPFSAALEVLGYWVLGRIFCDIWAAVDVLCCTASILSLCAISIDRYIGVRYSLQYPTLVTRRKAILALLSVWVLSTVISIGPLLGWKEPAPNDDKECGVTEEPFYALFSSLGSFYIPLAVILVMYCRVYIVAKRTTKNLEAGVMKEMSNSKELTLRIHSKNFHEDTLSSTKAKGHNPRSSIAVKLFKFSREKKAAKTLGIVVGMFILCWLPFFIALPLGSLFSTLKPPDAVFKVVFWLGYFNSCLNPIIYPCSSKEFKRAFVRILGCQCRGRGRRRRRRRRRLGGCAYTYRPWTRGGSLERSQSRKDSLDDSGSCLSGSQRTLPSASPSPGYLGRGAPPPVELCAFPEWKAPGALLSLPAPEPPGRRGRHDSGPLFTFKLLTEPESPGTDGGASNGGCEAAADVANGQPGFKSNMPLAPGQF

[1] = biological target: T2, full-length human α1D-adrenoceptor (Homo sapiens, UniProt P25100); experiment: [3H]prazosin whole-cell competition binding, CHO-α1D cells
T2 sequence (P25100 1-572): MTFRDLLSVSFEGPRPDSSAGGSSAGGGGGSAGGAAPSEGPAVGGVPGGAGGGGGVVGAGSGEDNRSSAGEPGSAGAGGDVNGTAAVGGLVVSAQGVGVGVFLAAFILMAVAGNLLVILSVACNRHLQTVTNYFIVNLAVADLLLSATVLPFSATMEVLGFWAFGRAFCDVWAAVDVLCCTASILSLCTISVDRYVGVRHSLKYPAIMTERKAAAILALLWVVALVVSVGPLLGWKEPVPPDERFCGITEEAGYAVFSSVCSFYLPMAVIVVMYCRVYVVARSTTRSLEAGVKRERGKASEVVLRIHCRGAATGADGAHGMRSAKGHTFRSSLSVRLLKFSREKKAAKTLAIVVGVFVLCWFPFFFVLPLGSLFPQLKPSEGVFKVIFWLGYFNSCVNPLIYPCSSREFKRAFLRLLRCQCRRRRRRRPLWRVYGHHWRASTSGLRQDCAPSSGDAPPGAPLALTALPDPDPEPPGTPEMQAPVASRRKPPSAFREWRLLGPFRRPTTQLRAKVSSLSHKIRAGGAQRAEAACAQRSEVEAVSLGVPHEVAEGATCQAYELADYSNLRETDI

human α1A-adrenoceptor = biological target: T3, human α1A-adrenoceptor (Homo sapiens, UniProt P35348); experiment: [3H]prazosin whole-cell competition binding, CHO-α1A cells
T3 construct: CHO cells stably expressing either the full‐length human α1A, α1B, or α1D‐adrenoceptor
T3 sequence (P35348 1-466): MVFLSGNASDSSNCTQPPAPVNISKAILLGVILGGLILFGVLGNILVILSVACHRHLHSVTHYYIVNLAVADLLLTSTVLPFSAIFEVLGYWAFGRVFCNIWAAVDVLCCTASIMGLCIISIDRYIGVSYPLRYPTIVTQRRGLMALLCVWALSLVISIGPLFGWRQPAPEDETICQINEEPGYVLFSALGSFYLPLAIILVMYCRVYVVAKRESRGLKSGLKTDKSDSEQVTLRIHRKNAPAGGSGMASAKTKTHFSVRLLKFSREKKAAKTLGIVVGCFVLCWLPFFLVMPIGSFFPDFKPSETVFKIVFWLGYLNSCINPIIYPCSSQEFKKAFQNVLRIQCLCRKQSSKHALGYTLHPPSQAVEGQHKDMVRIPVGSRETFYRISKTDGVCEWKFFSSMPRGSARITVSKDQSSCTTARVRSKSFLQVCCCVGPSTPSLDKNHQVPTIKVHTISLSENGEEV

[2] = single-component inhibition curve, given as log KD (negative), mean ± SE mean, read-out: Log KD α1B (converted)
[3] = Log KD α1D, single-component inhibition curve, given as log KD (negative), mean ± SE mean
[4] = log KD from 3H-prazosin whole cell binding, CHO cells, mean ± s.e.mean
[5] = single-component inhibition curve, given as log KD (negative), mean ± SE mean
[6] = percentage of inhibition through first component, control
[7] = Log KD α1D site 1, high-affinity component of two-component curve, control, used for selectivity
[8] = low-affinity component of two-component curve, control
[9] = two-component inhibition curve, proportion of site 1

CC(CN(C)C)CN1c2ccccc2CCc2ccccc21 (stereo not shown) [Trimipramine]
Kd (human α1B-adrenoceptor; [2]): 794 nM
Kd [1, 3]: 1020 nM

COc1cc2nc(N3CCN(C(=O)COc4c(OC)cccc4C(C)C)CC3)nc(N)c2cc1OC [Rec15-2615]
Log KD α1D [1, 4]: -7.89 ± 0.07

COc1ccccc1OCCNCC(O)COc1cccc2[nH]c3ccccc3c12 (stereo not shown) [Carvedilol]
Kd [1, 3]: 13.5 nM

COc1cc2nc(N(C)CCCNC(=O)C3CCCO3)nc(N)c2cc1OC (stereo not shown) [Alfuzosin]
Kd (human α1B-adrenoceptor; [2]): 27.5 nM
Kd [1, 3]: 21.9 nM

Fc1ccc([C@@H]2CCNC[C@H]2COc2ccc3c(c2)OCO3)cc1 [Paroxetine]
IC50 (human α1B-adrenoceptor): > 10000 nM
Kd [1, 3]: 2340 nM

COc1ccccc1N1CCN(CCn2c(=O)[nH]c3c([nH]c4ccccc43)c2=O)CC1 [3‐MPPI]
Log KD α1B (human α1B-adrenoceptor; [5]): −8.59 ± 0.03
Log KD α1A (human α1A-adrenoceptor; [5]): −9.57 ± 0.06

Cc1ccc(N(CC2=NCCN2)c2cccc(O)c2)cc1 [Phentolamine]
% site 1 α1D [1, 6]: 60.5 ± 3.8% site 1

CC(C)C[C@H]1C(=O)N2CCC[C@H]2[C@]2(O)O[C@](NC(=O)[C@@H]3C=C4c5cccc6[nH]c(Br)c(c56)C[C@H]4N(C)C3)(C(C)C)C(=O)N12 [Bromocriptine]
Kd (human α1B-adrenoceptor; [2]): 11 nM
Kd [1]: 49 nM

O=c1n(CCCN2CCN(c3cccc(Cl)c3)CC2)nc2ccccn12 [Trazodone]
Kd (human α1B-adrenoceptor; [2]): 275 nM
Kd [1, 3]: 417 nM

CN(C)CCC=C1c2ccccc2COc2ccccc21 [Doxepin]
Kd (human α1B-adrenoceptor; [2]): 661 nM
Kd [1, 3]: 537 nM

COc1cc2nc(N3CCN(C(=O)C4CCCO4)CC3)nc(N)c2cc1OC (stereo not shown) [Terazosin]
Kd [1, 3]: 19.5 nM

COc1ccccc1N1CCN(CCn2c(=O)[nH]c3c([nH]c4ccccc43)c2=O)CC1 [3-MPPI]
Log KD α1B (human α1B-adrenoceptor; [4]): -8.59 ± 0.03
Log KD α1A (human α1A-adrenoceptor; [4]): -9.57 ± 0.06

CN(C)CCCC1(c2ccc(F)cc2)OCc2cc(C#N)ccc21 (stereo not shown) [Citalopram]
IC50 (human α1B-adrenoceptor): > 100000 nM
Kd [1, 3]: 12300 nM

COCCCC/C(=N\OCCN)c1ccc(C(F)(F)F)cc1 [Fluvoxamine]
IC50 (human α1B-adrenoceptor): > 100000 nM
Kd [1, 3]: 10700 nM

O=C1[C@@H]2[C@H]3CC[C@H](C3)[C@@H]2C(=O)N1C[C@@H]1CCCC[C@H]1CN1CCN(c2nsc3ccccc23)CC1 [Lurasidone]
Kd (human α1B-adrenoceptor; [2]): 67.6 nM
Kd [1, 7]: 6.46 nM
Log KD α1D site 2 [1, 8]: −5.92 ± 0.06
% site 1 α1D [1, 6]: 24.8 ± 3.1% site 1
% site 1 α1D [1, 9]: -8.19 ± 0.10 -5.92 ± 0.06 24.8 ± 3.1% site 1

CN1CCN(CCCN2c3ccccc3Sc3ccc(Cl)cc32)CC1 [Prochlorperazine]
Kd (human α1B-adrenoceptor; [2]): 132 nM
Kd [1, 3]: 295 nM

CC(COc1ccccc1)N(CCCl)Cc1ccccc1 (stereo not shown) [Phenoxybenzamine]
Kd (human α1B-adrenoceptor; high-affinity component of two-component curve, control, read-out: Log KD α1B site 1 (converted)): 20.4 nM
Log KD α1B site 2 (human α1B-adrenoceptor; [8]): −5.57 ± 0.06
% site 1, α1B (human α1B-adrenoceptor; share of site 1 in the two-component inhibition curve): -7.69 ± 0.06 -5.57 ± 0.06 67.5 ± 2.5% site 1
% site 1, α1B (human α1B-adrenoceptor; [9]): -7.69 ± 0.06 -5.57 ± 0.06 67.5 ± 2.5% site 1
Kd [1]: 3.72 nM
Log KD α1D site 2 [1, 8]: −5.42 ± 0.08
% site 1 α1D [1, 9]: -8.43 ± 0.19 -5.42 ± 0.08 39.1 ± 2.0% site 1

CN1CCN2c3ncccc3Cc3ccccc3C2C1 (stereo not shown) [Mirtazepine]
Log KD α1B (human α1B-adrenoceptor; [5]): −5.36 ± 0.03

O=C1CCc2ccc(OCCCCN3CCN(c4cccc(Cl)c4Cl)CC3)cc2N1 [Aripiprazole]
Kd [1, 3]: 708 nM

CCOc1ccccc1OCCN[C@H](C)Cc1ccc(OC)c(S(N)(=O)=O)c1 [Tamsulosin]
Kd (human α1B-adrenoceptor; Log KD α1B, +1 mmol/L sodium thiosulphate, ligand preincubated 30 min with thiosulphate, single-component curve (column Log KD site 1)): 7.41 nM
Kd (human α1B-adrenoceptor; [2]): 7.59 nM
Log KD α1D site 2 [1]: −5.67 ± 0.15
Log KD α1D site 2, +1 mmol/L sodium thiosulphate [1]: −5.60 ± 0.08
effect of sodium thiosulfate preincubation on binding ([1]; 1 mmol/L sodium thiosulfate, tamsulosin at all three receptors (Table 2)): no effect
Kd ([1]; Log KD α1D site 1, +1 mmol/L sodium thiosulphate, two-component curve, high-affinity component): 0.776 nM
Kd [1, 7]: 0.661 nM
% site 1 α1D, +1 mmol/L sodium thiosulphate ([1]; two-component curve): 44.0 ± 2.8%
% site 1 α1D [1, 9]: -9.18 ± 0.08 -5.67 ± 0.15 54.6 ± 3.7% site 1

CN1CCN(CCCN2c3ccccc3Sc3ccc(C(F)(F)F)cc32)CC1 [Trifluoperazine]
Kd (human α1B-adrenoceptor; [2]): 132 nM
Kd [1, 3]: 437 nM

OCCOCCN1CCN(C2=Nc3ccccc3Sc3ccccc32)CC1 [Quetiapine]
Kd (human α1B-adrenoceptor; [2]): 61.7 nM
Kd [1, 3]: 331 nM

COc1cc2nc(N3CCN(C(=O)COc4c(OC)cccc4C(C)C)CC3)nc(N)c2cc1OC [Rec15‐2615]
Log KD α1D [1, 5]: −7.89 ± 0.07

CNCCC(Oc1ccc(C(F)(F)F)cc1)c1ccccc1 (stereo not shown) [Fluoxetine]
Kd [1, 3]: 12600 nM

CN(C)CCCN1c2ccccc2Sc2ccc(Cl)cc21 [Chlorpromazine]
Kd (human α1B-adrenoceptor; [2]): 14.5 nM
% site 1 α1D [1, 6]: 56.0 ± 5.0% site 1

CNCCCN1c2ccccc2CCc2ccccc21 [Desipramine]
Kd (human α1B-adrenoceptor; [2]): 2690 nM
Kd [1, 3]: 3470 nM

OCCN1CCN(CCCN2c3ccccc3Sc3ccc(Cl)cc32)CC1 [Perphenazine]
Kd (human α1B-adrenoceptor; [2]): 37.2 nM
Kd [1, 7]: 13.8 nM
Log KD α1D site 2 [1, 8]: −6.03 ± 0.19
% site 1 α1D [1, 6]: 53.3 ± 4.1% site 1
% site 1 α1D [1, 9]: -7.86 ± 0.10 -6.03 ± 0.19 53.3 ± 4.1% site 1

O=c1[nH]c2ccccc2n1CCCN1CCC(n2c(=O)[nH]c3cc(Cl)ccc32)CC1 [Domperidone]
Kd (human α1B-adrenoceptor; [2]): 3160 nM
Kd [1, 3]: 1050 nM

COc1cccc(OC)c1OCCNCC1COc2ccccc2O1 (stereo not shown) [WB4104]
Log KD α1A (human α1A-adrenoceptor; [5]): −9.03 ± 0.04

CNCC[C@H](Oc1cccc2ccccc12)c1cccs1 [Duloxetine]
Kd (human α1B-adrenoceptor; read-out: Log KD α1B (apparent) (converted)): 19500 nM
Kd [1]: 2630 nM

COc1ccccc1N1CCN(CCN2C(=O)CC3(CCCC3)CC2=O)CC1 [BMY7378]
Kd (human α1B-adrenoceptor; [2]): 589 nM
% site 1 α1D [1, 6]: 57.7 ± 2.6% site 1
% site 1 α1D [1, 9]: -8.60 ± 0.13 -5.93 ± 0.37 57.7 ± 2.6% site 1

O=c1[nH]c2ccccc2n1C1CCN(CCCC(c2ccc(F)cc2)c2ccc(F)cc2)CC1 [Pimozide]
Kd (human α1B-adrenoceptor; [2]): 162 nM
Kd [1, 3]: 1120 nM

CC(C)NCC(O)COc1cccc2ccccc12 (stereo not shown) [Propranolol]
Kd (human α1B-adrenoceptor; app: top concentration inhibited most but not all specific binding, curve extrapolated, read-out: Log KD α1B (apparent) (converted)): 105000 nM
Kd [1, 3]: 12900 nM
